Results on two compounds are retold here after ChEMBL document CHEMBL4706474, “Tetrahydro-2-naphthyl and 2-Indanyl Triazolopyrimidines Targeting Plasmodium falciparum Dihydroorotate Dehydrogenase Display Potent and Selective Antimalarial Activity” (J Med Chem, 2016).

Each structure is given as a SMILES string.

Common to all, as to format: ADME, organism-based
Series [1] in a line: Oral bioavailability in Sprague-Dawley rat at 17.5 mg/kg measured over 24 hrs by LC-MS analysis. As to conditions: in vivo.
The nature of series [2]: Unbound Cmax in Sprague-Dawley rat at 17.5 mg/kg, po measured over 24 hrs by LC-MS analysis. As to conditions: in vivo.
The nature of series [3]: Protein binding in Sprague-Dawley rat plasma at 1.8 mg/kg, iv administered as infusion for 10 mins by LC-MS analysis. As to conditions: read-out: PPB (converted).
Series [4] can be described thus: Apparent half-life in Sprague-Dawley rat at 1.8 mg/kg, iv administered as infusion for 10 mins by LC-MS analysis. As to conditions: in vivo, read-out: t1/2(app) (converted).
A short description of series [5]: Unbound AUC (0 to infinity) in Sprague-Dawley rat at 21.3 mg/kg, po measured over 24 hrs by LC-MS analysis. As to conditions: in vivo.

For `Cc1cc(N[C@H]2CCc3ccc(Cl)cc3C2)n2nc(C(C)(F)F)nc2n1`, the bioavailability (as a rule, dose-corrected exposure relative to a reference, in per cent) in series [1] was 67%. Besides, in series [2], the fCmax worked out at 0.12 µM.

`Cc1cc(NC2Cc3cc(F)c(F)cc3C2)n2nc(C(C)(F)F)nc2n1`: in series [3], the fraction unbound at 10 min is 0.058. Moreover, the half-life in series [4] was 11.2 h. Also, the fAUC in series [5] amounted to 11.7 µM·h.
